Patent US20250140406A1, “CLASSIFYING TUMORS AND PREDICTING RESPONSIVENESS” (Oncocyte Corporation, priority 2022, published 2025)

Experiments:
[1] = tested on: cancer cell lines, DetermaIO classes; test: Association of PRISM compound sensitivity with DetermaIO (DTIO) cell line classes; type: cell-based
[2] = tested on: cancer cell lines classified IM, MSL, M; test: PRISM screen compound sensitivity correlated with IM, MSL and M subtype of cell lines (101 gene signature); type: cell-based
[3] = correlation of PRISM compound sensitivity with DTIO, test cell set
[4] = correlation of PRISM compound sensitivity with DTIO, training cell set
[5] = correlation of PRISM compound sensitivity with IM subtype correlation; test cell set (188 cell lines)
[6] = correlation of PRISM compound sensitivity with M subtype correlation; test cell set (188 cell lines)
[7] = correlation of PRISM compound sensitivity with MSL subtype correlation; test cell set (188 cell lines)
[8] = subtype (IM, MSL or M) with which compound sensitivity is negatively correlated; training cell set (371 cell lines), 101 gene signature
[9] = correlation of compound sensitivity with DTIO, test set
[10] = correlation of compound sensitivity with DTIO, training set
[11] = correlation of PRISM compound sensitivity with IM subtype correlation; test cell set
[12] = correlation of PRISM compound sensitivity with M subtype correlation; test cell set
[13] = correlation of PRISM compound sensitivity with MSL subtype correlation; test cell set
[14] = subtype (IM, MSL or M) with which PRISM compound sensitivity is negatively correlated; training cell set, 101 gene signature
[15] = correlation of PRISM compound sensitivity with DTIO (DetermaIO), test cell set (188 cell lines)
[16] = correlation of PRISM compound sensitivity with DTIO (DetermaIO), training cell set (371 cell lines)
[17] = subtype (IM, MSL or M) assigned to the compound by negative correlation of PRISM sensitivity with subtype; training cell set (371 cell lines), 101 gene signature
[18] = correlation of compound sensitivity with DetermaIO (DTIO), test set
[19] = correlation of compound sensitivity with DetermaIO (DTIO), training set

Row | SMILES | DTIO Corr test [1, 3] | DTIO Corr train [1, 4] | IM Corr test [2, 5] | M Corr test [2, 6] | MSL Corr test [2, 7] | IM Corr test [2, 11] | M Corr test [2, 12] | MSL Corr test [2, 13] | other results
1 | CCCN(CCC)CCc1ccc(OC)c(OCCc2ccccc2)c1 [NE-100] | 0.02588 | 0.0932 | 0.02328 | −0.05032 | −0.07257 |  |  |  | TNBCType train [2, 8]: MSL
2 | O=Nc1ccc(O)c2ncccc12 [NSC-3852] | −0.00012 | 0.09356 | 0.06425 | −0.1666 | −0.09058 |  |  |  | DTIO Corr test [1, 9]: −0.00012; DTIO Corr train [1, 10]: 0.09356
3 | CCN(CC)CCCC(C)Nc1nc(C)cc(Nc2ccc3nc(C)cc(N)c3c2)n1 (stereo not shown) [NSC-23766] | 0.048 | 0.0675 | −0.00484 | −0.06657 | 0.1332 |  |  |  | 
4 | CCCCCCCC/C=C\CCCCCCCC(=O)NCCc1ccc(O)c(O)c1 [OLDA] |  |  | 0.0783 | −0.1742 | −0.06733 |  |  |  | DTIO Corr test ([1]; correlation of PRISM compound sensitivity with DTIO, test cell set (188 cell lines)): 0.08614; DTIO Corr train ([1]; correlation of PRISM compound sensitivity with DTIO, training cell set (371 cell lines)): 0.09584; TNBCType train ([2]; subtype (IM, MSL or M) the PRISM compound sensitivity is associated with; training cell set (371 cell lines); 101 gene signature): MSL
5 | CCCCCCCC/C=C\CCCCCCCC(=O)N[C@@H](CO)Cc1ccc(O)cc1 [OMDM-2] | 0.08864 | 0.00432 |  |  |  | 0.07857 | −0.1315 | −0.1068 | TNBCType train [2, 14]: MSL
6 | C#Cc1cccc(Nc2ncnc3cc(OCCOC)c(OCCO)cc23)c1 [OSI-420] |  |  | −0.01776 | 0.1416 | 0.3027 |  |  |  | DTIO Corr test [1, 15]: 0.1184; DTIO Corr train [1, 16]: −0.1185
7 | COc1cc2ncnc(Nc3cccc(Br)c3)c2cc1OC [PD-153035] | −0.03709 | −0.1232 |  |  |  | −0.1533 | 0.2905 | 0.3911 | DTIO Corr test [1, 9]: −0.03709; DTIO Corr train [1, 10]: −0.1232
8 | CC(=O)NCC(=O)N1[C@@H]2CC[C@H]1c1ccc(Nc3ncc(C(F)(F)F)c(NC4CCC4)n3)cc12 [PF-03814735] |  |  | 0.01597 | −0.07539 | −0.04366 |  |  |  | DTIO Corr test [1, 15]: −0.05974; DTIO Corr train [1, 16]: −0.01193; TNBCType train [2, 17]: MSL
9 | OCCn1cc(-c2cnc3nnn(Cc4ccc5ncccc5c4)c3n2)cn1 [PF-04217903] |  |  | −0.04418 | 0.07402 | 0.07771 |  |  |  | DTIO Corr test [1, 15]: −0.00139; DTIO Corr train [1, 16]: −0.1163
10 | C[C@H]1Oc2cc(cnc2N)-c2c(nn(C)c2C#N)CN(C)C(=O)c2ccc(F)cc21 [PF-06463922] | −0.00728 | −0.07689 | −0.1219 | −0.02078 | −0.05668 |  |  |  | TNBCType train [2, 8]: MSL
11 | Cc1ccc([N+](=O)[O-])cc1S(=O)(=O)N(C)/N=C/c1cnc2ccc(Br)cn12 [PIK-75] | −0.1696 | −0.1178 |  |  |  | −0.1541 | 0.127 | 0.07706 | 
12 | Cc1ccccc1-n1c(Cn2ncc3c(N)ncnc32)nc2cccc(C)c2c1=O [PIK-293] | 0.02467 | −0.1397 |  |  |  | −0.06338 | 0.066 | 0.00947 | 
13 | Nc1ncnc2c1c(-c1cnc3[nH]ccc3c1)nn2C1CCCC1 [PP-121] |  |  | −0.08606 | 0.07821 | 0.02379 |  |  |  | DTIO Corr test [1, 15]: −0.08787; DTIO Corr train [1, 16]: −0.1218
14 | N#CSc1cc(SC#N)c(N)nc1N [PR-619] | 0.05674 | 0.0993 |  |  |  | 0.1495 | −0.2203 | −0.1223 | DTIO Corr test [1, 18]: 0.05674; DTIO Corr train [1, 19]: 0.0993
15 | O=C(NCc1cccc(O)c1)Nc1nc(-c2ccncc2)cs1 [RKI-1447] | 0.08122 | 0.04633 | 0.09379 | −0.1921 | −0.2082 |  |  |  | DTIO Corr test [1, 9]: 0.08122; DTIO Corr train [1, 10]: 0.04633; DTIO Corr test [1, 18]: 0.08122; DTIO Corr train [1, 19]: 0.04633; TNBCType train [2, 8]: MSL; TNBCType test ([2]; subtype (IM, MSL, M) with which compound sensitivity correlates, test set): MSL; TNBCType train ([2]; subtype (IM, MSL, M) with which compound sensitivity correlates, training set): MSL; TNBCType test ([2]; subtype (IM, MSL, M) with which compound sensitivity correlates; test set): MSL; TNBCType train ([2]; subtype (IM, MSL, M) with which compound sensitivity correlates; training set): MSL
16 | O=[N+]([O-])c1cc(Cl)ccc1S(=O)(=O)N1CCN(Cc2ccccc2)CC1 [RN-1747] | −0.09773 | −0.1839 |  |  |  | −0.1441 | 0.1428 | 0.1269 | 
17 | CC(C)c1cc(-c2ccc(F)c3ccccc23)nc(N)n1 [RS-127445] |  |  | 0.05394 | −0.1296 | −0.05973 |  |  |  | DTIO Corr test [1, 15]: 0.0427; DTIO Corr train [1, 16]: 0.05431; TNBCType train [2, 17]: MSL
18 | O=c1[nH]ccc2cc(OC3CCNCC3)ccc12 [SAR407899] |  |  | 0.003595 | −0.1052 | −0.2277 |  |  |  | DTIO Corr test [1, 15]: −0.00558; DTIO Corr train [1, 16]: 0.07673; TNBCType train [2, 17]: MSL
19 | COC(=O)[C@H](NC(=O)c1cc(-c2ccccc2)nc2ccccc12)c1ccccc1 [SB-218795] |  |  | −0.01019 | 0.01779 | −0.1047 |  |  |  | DTIO Corr test [1, 15]: −0.06114; DTIO Corr train [1, 16]: −0.1377
20 | Cc1cccc(-c2[nH]c(C(C)(C)C)nc2-c2ccc3c(c2)OCO3)n1 [SB-505124] | 0.1683 | 0.2562 |  |  |  | 0.2475 | −0.1987 | −0.01627 | DTIO Corr test [1, 18]: 0.1683; DTIO Corr train [1, 19]: 0.2562
21 | COc1ccc(S(=O)(=O)N2CCCN(S(=O)(=O)c3ccc(OC)c(OC)c3)CC2)cc1OC [SB-756050] | −0.06711 | −0.07957 |  |  |  | −0.03347 | −0.03952 | 0.01577 | 
22 | C=C(C)CN1CC[C@]23c4c5ccc(O)c4O[C@H]2c2[nH]c4ccccc4c2C[C@@]3(O)C1C5.Cl.O [SDM25N] | −0.165 | −0.12 | −0.1682 | 0.08807 | −0.06407 |  |  |  | 
23 | COc1cc2ncnc(Sc3nnc(C)s3)c2cc1OC [SKLB1002] | 0.03788 | 0.02384 |  |  |  | 0.0147 | −0.00342 | −0.05424 | TNBCType train [2, 14]: MSL
24 | Cl.NC1CCN(c2cccc(Cl)n2)CC1 [SR-57227A] | 0.01635 | −0.1048 | −0.02879 | −0.08168 | −0.00449 |  |  |  | 
